As usually defined, the Ki is a measure of affinity in units of concentration, obtained from inhibition or displacement. One may read the inhibition as the percentage by which the read-out fell short of the control.

The target of test [1] is cathepsin X. The following applies: cited from earlier work.
The target of test [2] is T1, Cathepsin B (endopeptidase a.) (Homo sapiens, UniProt P07858).
T1 construct: made in house; host or cells: E. coli
Description: Ki against cathepsin B endopeptidase activity (Z-RR-AMC). The following applies: SigmaPlot at 3 different substrate concentrations; pH 6.0. Type of test: biochemical. On the procedure: (§1) Recombinant or native human cathepsins were used: recombinant cathepsin X and cathepsin S were expressed in Pichia pastoris, recombinant cathepsins B and L in E. coli, [43], native cathepsin H was isolated from human liver. Assay buffers for determining activities of cathepsins X and L consisted of 100 mM sodium acetate buffer, pH 5.5, for cathepsins H, S and B (endopeptidase activity) of 100 mM phosphate buffer pH 6.8, 6.5 and 6.0, respectively and for cathepsin B (exopeptidase activity) of 60 mM acetate buffer pH 5.0. Each assay buffer contained 0.01% Triton X-100 to prevent false positive inhibition due to aggregation of compounds[45], 5 mM cysteine, 1.5 mM EDTA and 0.1% PEG 8000. Enzymes were activated at 37 °C for 5 min before the assays.
(§2) Ki was determined by measuring the initial rate of hydrolysis at three different substrate concentrations (Supplementary Table S2) in the presence of seven different compound concentrations (0, 20, 40, 60, 80, 100 and 200 μM). 90 μL of the activated cathepsin was added to a black 96-well plate with 5 μL of the substrate and 5 μL of the compound. Formation of the fluorescent degradation product was monitored continuously at 460 nm ± 10 nm with excitation at 380 nm ± 20 nm (for AMC substrates) and, as noted above for Abz substrates, at 37 °C. All measurements were performed twice and in duplicate. The resulting data were analyzed by non-linear regression using the software SigmaPlot®, Enzyme Kinetics Module™ 1.3 and were fitted to the equation v = v max [S]/([S] (1 + [I]/αK i ) + K m (1 + [I]/K i )) (first group of compounds). For Ki determination against cathepsin X for the compounds from the second group, progress curves in the absence and presence of each putative inhibitor were fitted to the reaction mechanism presented in Fig. 3b. In this case the resulting data as well as reactivation curves were fitted to the equation system presented in Fig. 3c using ENZO application. For calculation of kinetic parameters from reaction progress curves the fluorescence coefficient for conversion of arbitrary fluorescence units to concentration was first determined. The fluorescence coefficient was calculated as the slope from the plot of initial substrate concentration vs. height of the plateau of the progress curve after complete hydrolysis of increasing concentrations of substrate, using linear regression.
(§3) Supplementary Table S2. Substrates used for the various cathepsins and their concentrations […]
(§4) Enzyme Substrate Concentration (µM) Reference/Company cathepsin X Abz-FEK(Dnp)-OH 3.25, 6.5, 13 Puzer et al.3 cathepsin B - endopept. Z-RR-AMC 60, 180, 360 Bachem cathepsin B - exopept. Abz-GIVRAK(Dnp)-OH 1, 3, 6 Bachem cathepsin S Z-VVR-AMC 0.5, 1, 1.5 Biomol cathepsin L Z-FR-AMC 0.5, 1, 4 Bachem cathepsin H Z-R-AMC 20, 80, 160 Biomol […]

Another test deals with T2, Cathepsin H (Homo sapiens, UniProt P09668).
T2 construct: native cathepsin H was isolated from human liver; from tissue; host or cells: human liver
T2 sequence (P09668 116-335 limits assumed, other chains not shown): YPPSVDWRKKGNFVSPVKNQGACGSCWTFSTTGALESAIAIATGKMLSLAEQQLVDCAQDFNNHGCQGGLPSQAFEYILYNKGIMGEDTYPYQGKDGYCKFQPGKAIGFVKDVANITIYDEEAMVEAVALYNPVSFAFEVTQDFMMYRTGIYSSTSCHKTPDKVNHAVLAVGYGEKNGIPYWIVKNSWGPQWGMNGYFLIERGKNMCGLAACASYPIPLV
Description: Ki against cathepsin H (Z-R-AMC). The following applies: SigmaPlot at 3 different substrate concentrations; pH 6.8. In kind it is biochemical. On the procedure:
as §1, §2, §3, §4

Test [3] concerns the target T3, cathepsin X (Homo sapiens, UniProt Q9UBR2). Description: Determination of relative inhibition of cathepsin X. Type of test: biochemical. Also noted: made in house; host or cells: Pichia pastoris. On the procedure:
as §1
Abz-FEK(Dnp)-OH was used as cathepsin X specific substrate in activity assays. 90 μL of activated cathepsin X (20 nM) was added to a black 96-well plate with 5 μL of substrate (3.25 μM final concentration) and 5 μL of the compound (50 μM final concentration). The reaction was monitored continuously at 420 nm ± 10 nm with excitation at 320 nm ± 20 nm and at 37 °C. Relative inhibition (%) was calculated with the equation (1 − v i/v 0) × 100, where v i is reaction velocity in the presence of the compound and v 0 is reaction velocity without the compound.

A further test addresses T4, Cathepsin S (Homo sapiens, UniProt P25774).
T4 construct: made in house; host or cells: Pichia pastoris
Put plainly: Ki against cathepsin S (Z-VVR-AMC). The following applies: SigmaPlot at 3 different substrate concentrations; pH 6.5. In kind it is biochemical. On the procedure:
as §1, §2, §3, §4

In a further test the target is T5, Cathepsin L (Homo sapiens, UniProt P07711).
T5 construct: made in house; host or cells: E. coli
T5 sequence (P07711 114-333): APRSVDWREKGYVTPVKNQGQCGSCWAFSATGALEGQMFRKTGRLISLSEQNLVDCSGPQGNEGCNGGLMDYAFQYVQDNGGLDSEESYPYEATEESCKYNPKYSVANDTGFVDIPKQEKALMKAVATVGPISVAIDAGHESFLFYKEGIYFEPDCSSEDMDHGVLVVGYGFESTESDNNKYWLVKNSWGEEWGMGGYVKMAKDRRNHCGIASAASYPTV
Description: Ki against cathepsin L (Z-FR-AMC). Type of test: biochemical. The following applies: SigmaPlot at 3 different substrate concentrations; pH 5.5. On the procedure:
as §1, §2, §3, §4

Test [4] has as its target T6, cathepsin X in lysates of PC-3 cells (Homo sapiens, UniProt Q9UBR2).
T6 construct: endogenous in cells; host or cells: PC-3
Put plainly: Cathepsin X activity in PC-3 cell lysates. In kind it is cell-based. The following applies: 10 μM. On the procedure: To detect cathepsin X activity in cell lysates, 95 μL of activated cell lysates (0.2 mg/mL total protein in assay buffer) were added to a black 96-well plate containing 5 μL of the substrate. The further procedure was the same as above. In some experiments lysates of non-treated cells were pre-incubated with 10 μM of compounds for 30 minutes and then activity was measured as described above.
For testing the enzyme activity in cell lysates, cells were treated with 10 μM of compounds. After 24 hours lysates were prepared in 50 mM Na acetate buffer pH 5.5 with 1 mM EDTA, 100 mM NaCl and 0.25% Triton X-100. Total protein concentration was determined by DC Protein Assay (Bio Rad) according to the instructions.

Test [5] deals with T7, Cathepsin B (exopeptidase a.) (Homo sapiens, UniProt P07858).
T7 construct: made in house; host or cells: E. coli
Description: Ki against cathepsin B exopeptidase activity (Abz-GIVRAK(Dnp)-OH). The following applies: SigmaPlot at 3 different substrate concentrations; pH 5.0. Type of test: biochemical. On the procedure: as §1, §2, §3, §4

Test [6] has as its target T3, cathepsin X. Description: Determination of Ki values and inhibition mechanism against cathepsin X (Abz-FEK(Dnp)-OH substrate). More on the design: made in house; host or cells: Pichia pastoris. The following applies: for Inhibition mechanism: ENZO. Type of test: biochemical. On the procedure:
as §1, §2, §3, §4

A further test concerns PC-3 cells. Put plainly: Real time cell migration assay (xCELLigence, CIM plates). Type of test: cell-based, human. The following applies: 10 μM, compound in upper and bottom compartments, vs DMSO; for inhibition at 10 µM: Homo sapiens, PC-3. On the procedure:
(§5) Human prostate cancer cell line PC-3 cells (obtained from ATCC, Manassas, USA; ATCC Number: CRL-1435) were cultured in F-12 (Gibco) and Advanced DMEM (Gibco) (1:1) with 10% FBS, 1% penicillin/streptomycin and 1% L-glutamine. Rat pheochromocytoma PC-12 cells (obtained from ATCC, Manassas, USA; ATCC Number: CRL-1721) were cultured in Advanced DMEM (Gibco) with 5% FBS, 10% heat-inactivated horse serum, 1% penicillin/streptomycin and 1% L-glutamine.
Cell migration assay was performed on a Real-Time Cell Analyzer Dual Plate (RTCA DP) Instrument, xCELLigence System (ACEA Biosciences). CIM plates were coated with fibronectin (10 μg/ml, BD Biosciences) on the down and upper side of the microporous PET membrane for 30 min at room temperature and 2 hours at 37 °C, respectively. Excess fibronectin was removed and wells washed with phosphate buffer saline (PBS). Compounds (10 μM) were added to the complete media (lower chambers) or serum-free media (upper chambers). 0.1% DMSO was used as a control. 2 × 10^4 cells were plated per well. In additional experimental setting, inhibitors were added only to the upper chambers 3 hours after experiment started in order to measure their impact only on the cell migration and not the adhesion. Impedance data, reported as cell index, were measured continuously every 15 min for 72 hours and then analyzed with the RTCA Software (ACEA Biosciences, Inc.). Results are normalized to cells treated with DMSO.

In test [7] the target is T3, cathepsin X. Put plainly: Reversibility of binding: washout experiment and dilution method. In kind it is biochemical. More on the design: made in house; host or cells: Pichia pastoris. On the procedure: The reversibility of binding was determined in two separate experiments. In the washout experiment[47] 20 nM cathepsin X was mixed with a saturating level of the inhibitor (100 μM) and incubated for 1 hour at room temperature. One half of the reaction mixture was assayed for activity and the other half was diluted approximately 200000-fold with assay buffer prior to the activity assay. Step-wise dilution and concentration was performed on a Centricon (Millipore) with 10 kDa cut-off. In the dilution method[19] cathepsin X (5 μM) was incubated with inhibitor (100 μM). Half the reaction mixture was diluted 100-fold with the assay buffer containing substrate and immediately assayed for activity, the other half was incubated for 2 hours, diluted 100-fold and then assayed for activity.

In a further test the test system is PC-12 cells. Put plainly: Neurite outgrowth assay. The following applies: 10 µM; 48 h; vs DMSO control. In kind it is cell-based, rat. On the procedure: as §5
PC-12 cells were seeded in 96-well plates (4 × 10^4/well) coated with poly-L-lysine. Next day, the cells were treated with compounds (10 µM) in serum-free medium, and neurite outgrowth was measured after 48 h using Neurite Outgrowth Staining Kit (Molecular Probes), in accordance with the manufacturer’s instructions. Fluorescence intensity was measured at 525 nm with excitation at 483 nm for cell viability indicator and at 567 nm with excitation at 554 nm for cell membrane indicator. Results, expressing increased neurite outgrowth, were normalized to cells treated with DMSO.

The mark [8] stands for this setting: screening at 50 μM compound, read-out: relative inhibition of cathepsin X.
The mark [9] stands for this setting: second group, 50 μM compound, 1 h preincubation, read-out: % inhibition (1 h preincubation).
Setting [10] is: second group, progress curve analysis with ENZO.
[11] abbreviates: first group, SigmaPlot non-linear regression at 3 different substrate concentrations.

Read-outs that look alike come from different tables or passages of the source.

T4 sequence (P25774 115-331): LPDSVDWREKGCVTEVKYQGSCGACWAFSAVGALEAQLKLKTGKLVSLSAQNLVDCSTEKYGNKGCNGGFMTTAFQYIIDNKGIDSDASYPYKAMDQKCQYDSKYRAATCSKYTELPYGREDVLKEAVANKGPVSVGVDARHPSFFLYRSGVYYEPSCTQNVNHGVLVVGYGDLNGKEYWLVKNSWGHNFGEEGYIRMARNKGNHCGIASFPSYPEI
T3 sequence (Q9UBR2 62-303): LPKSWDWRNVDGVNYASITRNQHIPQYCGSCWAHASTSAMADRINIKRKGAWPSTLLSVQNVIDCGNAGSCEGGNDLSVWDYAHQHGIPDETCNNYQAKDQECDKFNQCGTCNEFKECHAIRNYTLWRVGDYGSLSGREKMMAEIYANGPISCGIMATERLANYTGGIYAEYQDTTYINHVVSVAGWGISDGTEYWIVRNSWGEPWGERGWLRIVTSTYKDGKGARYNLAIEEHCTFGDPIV
T6 sequence (Q9UBR2 62-303): as above

On to `CCCNC(=O)C1OC1C(=O)NC(C(=O)O)C(C)CC` (stereo not drawn) [nPrNH-(2 S,3 S)tEps-Ile-OH], for which, at cathepsin X [1], the kinact/Ki is listed as 225 M^–1s^–1 and the “preference for cathepsin X over cathepsins B or L” value is 10 fold.

Turning to `Cn1cnc(SCC(=O)c2ccc3c(c2)OCCO3)n1` [Compound 12, 1-(2,3-Dihydrobenzo[b][1,4]dioxin-6-yl)-2-((1-methyl-1H-1,2,4-triazol-3-yl)thio)ethanone], the Ki in [2] was more than 500 µM; at Cathepsin H, more than 500 µM; at Cathepsin L, more than 500 µM; in test [5], 120.5 ± 0.9 µM; at cathepsin X [6] (setting [10]), 5.88 ± 0.21 µM. Further, the inhibition at 50 µM at cathepsin X [3] (setting [8]) was more than 70%; at cathepsin X [3] (setting [9]), 82%. For the same compound, the “Ki Cathepsin S” value on Cathepsin S is “n.i”. For the same compound, the “inhibition of cathepsin X enzyme activity in lysates of PC-3 cells” value in [4] is given as “trend toward less potent inhibition”. Moreover, the Inhibition mechanism result at cathepsin X [6] (second group) is on record as “competitive”. Besides, the “inhibition of PC-3 cell migration” value in the test on PC-3 cells is recorded as “failed to affect cell migration”.

As to `Cc1[nH]c2ccccc2c1C(=O)CSc1n[nH]c(N)n1` [Compound 1, 2-((5-Amino-1H-1,2,4-triazol-3-yl)thio)-1-(2-methyl-1H-indol-3-yl)ethanone], the Ki in test [2] was more than 1000 µM; at Cathepsin H, 1870 ± 240 µM; on Cathepsin S it was more than 1000 µM; at Cathepsin L it was 975 ± 101 µM; in test [5] it was 371 ± 97.9 µM; at cathepsin X [6] (setting [11]) it was 38.4 ± 0.2 µM. Further, the inhibition at 50 µM at cathepsin X [3] (setting [8]) lay within 60 to 75%. Also, the “inhibition of cathepsin X enzyme activity in lysates of PC-3 cells” value in test [4] is “trend toward less potent inhibition”. The “inhibition of PC-3 cell migration” value in the test on PC-3 cells is “failed to affect cell migration”.

On to `CC(C)C[C@H](NC(=O)[C@H]1O[C@@H]1C(=O)O)C(=O)NCCCCN=C(N)N` [Compound E-64], for which, at cathepsin X [7] (1-hour pre-incubation, 100 μM inhibitor, 200000-fold dilution, 10 kDa cut-off), the “cathepsin X activity after washout” value was “retained cathepsin X inhibition”. Further, the “enzyme activity recovered after 100-fold rapid dilution” value on cathepsin X [7] (dilution method, cathepsin X 5 μM, inhibitor 100 μM) is reported as “remained inhibited”. Besides, the kinact/Ki on cathepsin X [1] is 775 M^–1s^–1.

Take `Cc1ccccc1-n1cnnc1SCC(=O)c1ccc2c(c1)OCCO2` [Compound 20, 1-(2,3-Dihydrobenzo[b][1,4]dioxin-6-yl)-2-((4-(o-tolyl)-4H-1,2,4-triazol-3-yl)thio)ethan-1-one]: the Ki is 301 ± 214 µM in test [2], more than 500 µM at Cathepsin H, 83.1 ± 7 µM in test [5] and 8.78 ± 0.39 µM at cathepsin X [6] (setting [10]). Moreover, the results for the inhibition at 50 µM at cathepsin X [3] (setting [8]) and at cathepsin X [3] (setting [9]) were more than 70% and 79%, respectively. For the same compound, the “Ki Cathepsin S” value at Cathepsin S is recorded as “n.i”. The “increase of neurite outgrowth” value with PC-12 cells is “statistically significant increase”. For the same compound, at Cathepsin L, the “Ki Cathepsin L” value was “n.i”. For the same compound, at cathepsin X [6] (second group), the Inhibition mechanism result is listed as “competitive”. This compound also registered an inhibition at 10 µM with PC-3 cells of 15 to 30%.

Take `Nc1nc(SCC(=O)c2ccc3c(c2)OCCO3)n[nH]1` [Compound 2, 2-((5-Amino-1H-1,2,4-triazol-3-yl)thio)-1-(2,3-dihydrobenzo[b][1,4]dioxin-6-yl)ethanone]: the Ki was found to be 392 ± 121 µM in test [2]; 483.1 ± 0.6 µM at Cathepsin H; 463 ± 42.9 µM at Cathepsin S; 902 ± 89.7 µM at Cathepsin L; 210 ± 11 µM in [5]; 29.2 ± 2.44 µM at cathepsin X [6] (setting [11]). The inhibition at 50 µM on cathepsin X [3] (setting [8]) fell in the range of 60 to 75%. Besides, the “increase of neurite outgrowth” value with PC-12 cells is given as “statistically significant increase”. In the test on PC-3 cells, this compound came in with an inhibition at 10 µM of 15 to 30%.

The record behind these values is PMC5597618, “Identification and characterization of the novel reversible and selective cathepsin X inhibitors” (Scientific Reports, 2017).
